Results taken from patent US10407383B2, “Cyclopentene and cyclopentadiene compounds for controlling invertebrate pests” (BASF SE, priority 2014, dated 2019).

How the values were obtained:
Format in all cases: in vivo
[1] = test system: green peach aphid (Myzus persicae); assay: Green peach aphid (Myzus persicae), systemic, 96-well plates with liquid artificial diet under membrane; details: 72 h, adult aphids on treated diet, 3 days, read-out: mortality in comparison with untreated controls
From the text: B.1 Green Peach Aphid (Myzus persicae)
For evaluating control of green peach aphid (Myzus persicae) through systemic means the test unit consisted of 96-well-microtiter plates containing liquid artificial diet under an artificial membrane.
The compounds were formulated using a solution containing 75% v/v water and 25% v/v DMSO. Different concentrations of formulated compounds were pipetted into the aphid diet, using a custom built pipetter, at two replications.
After application, 5-8 adult aphids were placed on the artificial membrane inside the microtiter plate wells. The aphids were then allowed to suck on the treated aphid diet and incubated at about 23±1° C. and about 50±5% relative humidity for 3 days. Aphid mortality and fecundity was then visually assessed.

[2] = test system: vetch aphid (Megoura viciae); assay: Vetch aphid (Megoura viciae), contact or systemic, broad bean leaf disks in 24-well plates; details: foliar, 120 h, adult aphids on sprayed leaf disks, 5 days, read-out: mortality in comparison with untreated controls
Description: B.2 Vetch Aphid (Megoura viciae)
For evaluating control of vetch aphid (Megoura viciae) through contact or systemic means the test unit consisted of 24-well-microtiter plates containing broad bean leaf disks.
The compounds were formulated using a solution containing 75% v/v water and 25% v/v DMSO. Different concentrations of formulated compounds were sprayed onto the leaf disks at 2.5 μl, using a custom built micro atomizer, at two replications.
After application, the leaf disks were air-dried and 5-8 adult aphids placed on the leaf disks inside the microtiter plate wells. The aphids were then allowed to suck on the treated leaf disks and incubated at about 23±1° C. and about 50±5% relative humidity for 5 days. Aphid mortality and fecundity was then visually assessed.

[3] = test system: tobacco budworm (Heliothis virescens); assay: Tobacco budworm (Heliothis virescens), insect diet with eggs in 96-well plates; details: 120 h, egg and larval mortality, 5 days, read-out: mortality in comparison with untreated controls
Description: B.3 Tobacco Budworm (Heliothis virescens)
For evaluating control of tobacco budworm (Heliothis virescens) the test unit consisted of 96-well-microtiter plates containing an insect diet and 15-25 H. virescens eggs.
The compounds were formulated using a solution containing 75% v/v water and 25% v/v DMSO. Different concentrations of formulated compounds were sprayed onto the insect diet at 10 μl, using a custom built micro atomizer, at two replications.
(§1) After application, microtiter plates were incubated at about 28±1° C. and about 80±5% relative humidity for 5 days. Egg and larval mortality was then visually assessed.

[4] = test system: boll weevil (Anthonomus grandis); assay: Boll weevil (Anthonomus grandis), insect diet with eggs in 24-well plates; details: 120 h, egg and larval mortality, 5 days, read-out: mortality in comparison with untreated controls
Description: B.4 Boll Weevil (Anthonomus grandis)
For evaluating control of boll weevil (Anthonomus grandis) the test unit consisted of 24-well-microtiter plates containing an insect diet and 20-30 A. grandis eggs.
The compounds were formulated using a solution containing 75% v/v water and 25% v/v DMSO. Different concentrations of formulated compounds were sprayed onto the insect diet at 20 μl, using a custom built micro atomizer, at two replications.
After application, microtiter plates were incubated at about 23±1° C. and about 50±5% relative humidity for 5 days. Egg and larval mortality was then visually assessed.

[5] = test system: Mediterranean fruitfly (Ceratitis capitata); assay: Mediterranean fruitfly (Ceratitis capitata), insect diet with eggs in microtiter plates; details: 120 h, egg and larval mortality, 5 days, read-out: mortality in comparison with untreated controls
Description: B.5 Mediterranean Fruitfly (Ceratitis capitata)
For evaluating control of Mediterranean fruitfly (Ceratitis capitata) the test unit consisted of microtiter plates containing an insect diet and 50-80 C. capitata eggs.
The compounds were formulated using a solution containing 75% v/v water and 25% v/v DMSO. Different concentrations of formulated compounds were sprayed onto the insect diet at 5 μl, using a custom built micro atomizer, at two replications.
as §1

[6] = test system: Diamond Back Moth (Plutella Xylostella); assay: Diamond back moth (Plutella xylostella), cabbage leaf dip, 3rd instar larvae; details: foliar, 72 hours after treatment, read-out: mortality in comparison with untreated controls
Description: B.6 Diamond Back Moth (Plutella Xylostella)
The active compound was dissolved at the desired concentration in a mixture of 1:1 (vol:vol) distilled water:aceteone. Surfactant (Kinetic HV) was added at a rate of 0.01% (vol/vol). The test solution was prepared at the day of use.
Leaves of cabbage were dipped in test solution and air-dried. Treated leaves were placed in petri dishes lined with moist filter paper and inoculated with ten 3rd instar larvae. Mortality was recorded 72 hours after treatment. Feeding damages were also recorded using a scale of 0-100%.

[7] = test system: Orchid Thrips (Dichromothrips Corbetti); assay: Orchid thrips (Dichromothrips corbetti), floral-immersion technique; details: adult thrips, 72 hours after treatment, read-out: mortality in comparison with untreated controls
Description: B.7 Orchid Thrips (Dichromothrips Corbetti)
Dichromothrips corbetti adults used for bioassay were obtained from a colony maintained continuously under laboratory conditions. For testing purposes, the test compound was diluted in a 1:1 mixture of acetone:water (vol:vol), plus Kinetic HV at a rate of 0.01% v/v.
Thrips potency of each compound was evaluated by using a floral-immersion technique. All petals of individual, intact orchid flowers were dipped into treatment solution and allowed to dry in Petri dishes. Treated petals were placed into individual re-sealable plastic along with about 20 adult thrips. All test arenas were held under continuous light and a temperature of about 28° C. for duration of the assay. After 3 days, the numbers of live thrips were counted on each petal. The percent mortality was recorded 72 hours after treatment.

[8] = test system: Rice Green Leafhopper (Nephotettix virescens); assay: Rice green leafhopper (Nephotettix virescens), sprayed potted rice seedlings; details: adults, after 72 hours, read-out: mortality in comparison with untreated controls
Description: B.8 Rice Green Leafhopper (Nephotettix virescens)
Rice seedlings were cleaned and washed 24 hours before spraying. The active compounds were formulated in 1:1 acetone:water (vol:vol), and 0.01% vol/vol surfactant (Kinetic HV) was added. Potted rice seedlings were sprayed with 5-6 ml test solution, air dried, covered with Mylar cages and inoculated with 10 adults. Treated rice plants were kept at about 28-29° C. and relative humidity of about 50-60%. Percent mortality was recorded after 72 hours.

[9] = test system: Red Spider Mite (Tetranychus kanzawai); assay: Red spider mite (Tetranychus kanzawai), sprayed potted cowpea beans; details: 72 hours after treatment, read-out: mortality in comparison with untreated controls
Description: B.9 Red Spider Mite (Tetranychus kanzawai)
The active compound was dissolved at the desired concentration in a mixture of 1:1 (vol:vol) distilled water:acetone. Surfactant (Kinetic HV) was added at a rate of 0.01% (vol/vol). The test solution was prepared at the day of use.
Potted cowpea beans of 4-5 days of age were cleaned with tap water and sprayed with 1-2 ml of the test solution using air driven hand atomizer. The treated plants were allowed to air dry and afterwards inoculated with 30 or more mites by clipping a cassava leaf section from rearing population. Treated plants were placed inside a holding room at about 25-27° C. and about 50-60% relative humidity. Percent mortality was assessed 72 hours after treatment.

O=C(NC1CS(=O)(=O)C1)c1ccc(C2=CC(c3cc(Cl)cc(Cl)c3)(C(F)(F)F)C=C2)cc1Cl (stereo not shown) [Compound 2-12, 2-Chloro-4-[3-(3,5-dichlorophenyl)-3-(trifluoromethyl)cyclopenta-1,4-dien-1-yl]-N-(1,1-dioxothietan-3-yl)benzamide]
≥ 75%: mortality at 2500 ppm [1] | mortality at 2500 ppm [2] | mortality at 2500 ppm [3] | mortality at 2500 ppm [4] | mortality at 2500 ppm [5] | mortality at 500 ppm [6] | mortality at 500 ppm [7] | mortality at 500 ppm [8] | mortality at 500 ppm [9]

O=C(NC1CS(=O)(=O)C1)c1ccc(C2=CCC(c3cc(Cl)cc(Cl)c3)(C(F)(F)F)C2)cc1Cl (stereo not shown) [Compound 3-9, 2-Chloro-4-[4-(3,5-dichlorophenyl)-4-(trifluoromethyl)cyclopenten-1-yl]-N-(1,1-dioxothietan-3-yl)benzamide]
≥ 75%: mortality at 2500 ppm [1] | mortality at 2500 ppm [2] | mortality at 2500 ppm [3] | mortality at 2500 ppm [4] | mortality at 2500 ppm [5] | mortality at 500 ppm [6] | mortality at 500 ppm [7] | mortality at 500 ppm [8] | mortality at 500 ppm [9]

O=C(O)c1ccc(C2=CC(c3cc(Cl)cc(Cl)c3)(C(F)(F)F)CC2)cc1Cl (stereo not shown) [Compound 1-12, 2-Chloro-4-[3-(3,5-dichlorophenyl)-3-(trifluoromethyl)cyclopenten-1-yl]benzoic acid]
≥ 75%: mortality at 2500 ppm [4]

COC(=O)c1ccc(C2=CC(c3cc(Cl)cc(Cl)c3)(C(F)(F)F)CC2)cc1Cl (stereo not shown) [Compound 1-13, Methyl 2-chloro-4-[3-(3,5-dichlorophenyl)-3-(trifluoromethyl)cyclopenten-1-yl]-benzoate]
≥ 75%: mortality at 2500 ppm [4] | mortality at 500 ppm [6]

O=C(O)c1ccc(C2=CCC(c3cc(Cl)cc(Cl)c3)(C(F)(F)F)C2)cc1Cl (stereo not shown) [Compound 3-11, 2-Chloro-4-[4-(3,5-dichlorophenyl)-4-(trifluoromethyl)cyclopenten-1-yl]benzoic acid]
≥ 75%: mortality at 2500 ppm [4]

O=C(NC1CS(=O)(=O)C1)c1ccc(C2=CC(c3cc(Cl)cc(Cl)c3)(C(F)(F)F)CC2)cc1Cl (stereo not shown) [Compound 1-11, 2-Chloro-4-[3-(3,5-dichlorophenyl)-3-(trifluoromethyl)cyclopenten-1-yl]-N-(1,1-dioxothietan-3-yl)benzamide]
≥ 75%: mortality at 2500 ppm [1] | mortality at 2500 ppm [2] | mortality at 2500 ppm [3] | mortality at 2500 ppm [4] | mortality at 2500 ppm [5] | mortality at 500 ppm [6] | mortality at 500 ppm [7] | mortality at 500 ppm [8] | mortality at 500 ppm [9]
